Test results published in ChEMBL document CHEMBL3885861, “Open TG-GATES”.

Species: Rattus norvegicus
Assay: Open TG-GATES - Regimen: Single
Assay type: toxicity, organism-based, Sprague-Dawley
Set-up: regimen Single, gender Male, age 6 weeks
Details: in vivo, po, route gavage; for gamma-GTP / ALP / ALT / AST / CRE / Ca / Cl / DBIL / GLC / IP / K / LDH / Na / PL / RALB / TBIL / TC / TG / TP / BUN: tissue Plasma; for Bas / Eos / Fbg / Hb / Ht / Lym / MCH / MCHC / MCV / Mono / PT / Plat / RBC / Ret / WBC / APTT / Neu: tissue Blood; for KIDNEY_L / KIDNEY_R / KIDNEY_TOTAL: tissue Kidney; for LIVER: tissue Liver
[1] = 100 mg/kg, 24 h, dose level Low

COC(=O)C1=C(C)NC(C)=C(C(=O)OC)C1c1ccccc1[N+](=O)[O-] [NIFEDIPINE]
gamma-GTP (0 mg/kg, 24 h, dose level Control): 1 IU/L
TERMINAL_BW (100 mg/kg, 3 h, dose level Low): 201.3 g
Bas (100 mg/kg, 3 h, dose level Low): 0%
Eos (100 mg/kg, 3 h, dose level Low): 1%
Fbg (100 mg/kg, 3 h, dose level Low): 279.6 mg/dL
Hb (100 mg/kg, 3 h, dose level Low): 12.9 g/dL
Ht (100 mg/kg, 3 h, dose level Low): 39.2%
Lym (100 mg/kg, 3 h, dose level Low): 71.8%
MCH (100 mg/kg, 3 h, dose level Low): 20.6 pg
MCHC (100 mg/kg, 3 h, dose level Low): 32.8%
MCV (100 mg/kg, 3 h, dose level Low): 62.6 fL
Mono (100 mg/kg, 3 h, dose level Low): 4.4%
PT (100 mg/kg, 3 h, dose level Low): 14.9 s
Plat (100 mg/kg, 3 h, dose level Low): 123.6 x10_4/uL
RBC (100 mg/kg, 3 h, dose level Low): 625.8 x10_4/ul
Ret (100 mg/kg, 3 h, dose level Low): 9.3%
WBC (100 mg/kg, 3 h, dose level Low): 127.1 x10_2/uL
KIDNEY_L (100 mg/kg, 3 h, dose level Low): 0.9 g
KIDNEY_R (100 mg/kg, 3 h, dose level Low): 0.9 g
KIDNEY_TOTAL (100 mg/kg, 3 h, dose level Low): 1.8 g
LIVER (100 mg/kg, 3 h, dose level Low): 7.9 g
ALP (100 mg/kg, 3 h, dose level Low): 1399 IU/L
ALT (100 mg/kg, 3 h, dose level Low): 44.8 IU/L
AST (100 mg/kg, 3 h, dose level Low): 78.6 IU/L
CRE (100 mg/kg, 3 h, dose level Low): 0.3 mg/dL
Ca (100 mg/kg, 3 h, dose level Low): 11.7 mg/dL
Cl (100 mg/kg, 3 h, dose level Low): 98.2 meq/L
DBIL (100 mg/kg, 3 h, dose level Low): 0.01 mg/dL
GLC (100 mg/kg, 3 h, dose level Low): 227.6 mg/dL
IP (100 mg/kg, 3 h, dose level Low): 9 mg/dL
K (100 mg/kg, 3 h, dose level Low): 4.7 meq/L
LDH (100 mg/kg, 3 h, dose level Low): 89.4 IU/L
Na (100 mg/kg, 3 h, dose level Low): 135.6 meq/L
PL (100 mg/kg, 3 h, dose level Low): 132 mg/dL
RALB (100 mg/kg, 3 h, dose level Low): 2.5 g/dL
TBIL (100 mg/kg, 3 h, dose level Low): 0.042 mg/dL
TC (100 mg/kg, 3 h, dose level Low): 76.2 mg/dL
TG (100 mg/kg, 3 h, dose level Low): 31.6 mg/dL
TP (100 mg/kg, 3 h, dose level Low): 5.3 g/dL
gamma-GTP (100 mg/kg, 3 h, dose level Low): 1.2 IU/L
TERMINAL_BW (100 mg/kg, 6 h, dose level Low): 203.8 g
APTT (100 mg/kg, 6 h, dose level Low): 16.8 s
Bas (100 mg/kg, 6 h, dose level Low): 0%
Eos (100 mg/kg, 6 h, dose level Low): 0.4%
Fbg (100 mg/kg, 6 h, dose level Low): 278.2 mg/dL
Hb (100 mg/kg, 6 h, dose level Low): 12.8 g/dL
Ht (100 mg/kg, 6 h, dose level Low): 39.2%
Lym (100 mg/kg, 6 h, dose level Low): 76.2%
MCH (100 mg/kg, 6 h, dose level Low): 20.2 pg
MCHC (100 mg/kg, 6 h, dose level Low): 32.6%
MCV (100 mg/kg, 6 h, dose level Low): 61.7 fL
Mono (100 mg/kg, 6 h, dose level Low): 3.6%
Neu (100 mg/kg, 6 h, dose level Low): 18.6%
PT (100 mg/kg, 6 h, dose level Low): 15 s
Plat (100 mg/kg, 6 h, dose level Low): 124 x10_4/uL
RBC (100 mg/kg, 6 h, dose level Low): 634.8 x10_4/ul
Ret (100 mg/kg, 6 h, dose level Low): 9.2%
WBC (100 mg/kg, 6 h, dose level Low): 96.4 x10_2/uL
KIDNEY_L (100 mg/kg, 6 h, dose level Low): 0.9 g
KIDNEY_R (100 mg/kg, 6 h, dose level Low): 0.9 g
KIDNEY_TOTAL (100 mg/kg, 6 h, dose level Low): 1.7 g
LIVER (100 mg/kg, 6 h, dose level Low): 7.8 g
ALP (100 mg/kg, 6 h, dose level Low): 1423.2 IU/L
ALT (100 mg/kg, 6 h, dose level Low): 54.6 IU/L
AST (100 mg/kg, 6 h, dose level Low): 82.2 IU/L
BUN (100 mg/kg, 6 h, dose level Low): 32.4 mg/dL
CRE (100 mg/kg, 6 h, dose level Low): 0.2 mg/dL
Ca (100 mg/kg, 6 h, dose level Low): 11.3 mg/dL
Cl (100 mg/kg, 6 h, dose level Low): 98.6 meq/L
DBIL (100 mg/kg, 6 h, dose level Low): 0.01 mg/dL
GLC (100 mg/kg, 6 h, dose level Low): 220.6 mg/dL
IP (100 mg/kg, 6 h, dose level Low): 10.7 mg/dL
K (100 mg/kg, 6 h, dose level Low): 5.2 meq/L
LDH (100 mg/kg, 6 h, dose level Low): 72.8 IU/L
Na (100 mg/kg, 6 h, dose level Low): 135.8 meq/L
PL (100 mg/kg, 6 h, dose level Low): 141.2 mg/dL
RALB (100 mg/kg, 6 h, dose level Low): 2.6 g/dL
TBIL (100 mg/kg, 6 h, dose level Low): 0.042 mg/dL
TC (100 mg/kg, 6 h, dose level Low): 86.4 mg/dL
TG (100 mg/kg, 6 h, dose level Low): 20.8 mg/dL
TP (100 mg/kg, 6 h, dose level Low): 5.5 g/dL
gamma-GTP (100 mg/kg, 6 h, dose level Low): 1.2 IU/L
TERMINAL_BW (100 mg/kg, 9 h, dose level Low): 204.8 g
APTT (100 mg/kg, 9 h, dose level Low): 15.8 s
Bas (100 mg/kg, 9 h, dose level Low): 0%
Eos (100 mg/kg, 9 h, dose level Low): 0.6%
Fbg (100 mg/kg, 9 h, dose level Low): 292.2 mg/dL
Hb (100 mg/kg, 9 h, dose level Low): 12.7 g/dL
Ht (100 mg/kg, 9 h, dose level Low): 38.7%
Lym (100 mg/kg, 9 h, dose level Low): 80.2%
MCH (100 mg/kg, 9 h, dose level Low): 20.8 pg
MCHC (100 mg/kg, 9 h, dose level Low): 32.9%
MCV (100 mg/kg, 9 h, dose level Low): 63.3 fL
Mono (100 mg/kg, 9 h, dose level Low): 2.8%
Neu (100 mg/kg, 9 h, dose level Low): 14.8%
PT (100 mg/kg, 9 h, dose level Low): 14.6 s
Plat (100 mg/kg, 9 h, dose level Low): 127.7 x10_4/uL
RBC (100 mg/kg, 9 h, dose level Low): 610.8 x10_4/ul
Ret (100 mg/kg, 9 h, dose level Low): 9.7%
WBC (100 mg/kg, 9 h, dose level Low): 116.7 x10_2/uL
KIDNEY_L (100 mg/kg, 9 h, dose level Low): 0.9 g
KIDNEY_R (100 mg/kg, 9 h, dose level Low): 0.9 g
KIDNEY_TOTAL (100 mg/kg, 9 h, dose level Low): 1.7 g
LIVER (100 mg/kg, 9 h, dose level Low): 7.4 g
ALP (100 mg/kg, 9 h, dose level Low): 1305.6 IU/L
ALT (100 mg/kg, 9 h, dose level Low): 46.4 IU/L
AST (100 mg/kg, 9 h, dose level Low): 75.6 IU/L
BUN (100 mg/kg, 9 h, dose level Low): 17.8 mg/dL
CRE (100 mg/kg, 9 h, dose level Low): 0.2 mg/dL
Ca (100 mg/kg, 9 h, dose level Low): 10.9 mg/dL
Cl (100 mg/kg, 9 h, dose level Low): 102 meq/L
DBIL (100 mg/kg, 9 h, dose level Low): 0.008 mg/dL
GLC (100 mg/kg, 9 h, dose level Low): 178.6 mg/dL
IP (100 mg/kg, 9 h, dose level Low): 10.8 mg/dL
K (100 mg/kg, 9 h, dose level Low): 4.6 meq/L
LDH (100 mg/kg, 9 h, dose level Low): 76 IU/L
Na (100 mg/kg, 9 h, dose level Low): 138.6 meq/L
PL (100 mg/kg, 9 h, dose level Low): 152 mg/dL
RALB (100 mg/kg, 9 h, dose level Low): 2.6 g/dL
TBIL (100 mg/kg, 9 h, dose level Low): 0.046 mg/dL
TC (100 mg/kg, 9 h, dose level Low): 90.6 mg/dL
TG (100 mg/kg, 9 h, dose level Low): 28.2 mg/dL
TP (100 mg/kg, 9 h, dose level Low): 5.4 g/dL
gamma-GTP (100 mg/kg, 9 h, dose level Low): 1.2 IU/L
TERMINAL_BW [1]: 206.2 g
APTT [1]: 16.5 s
Bas [1]: 0%
Eos [1]: 1%
Fbg [1]: 267.8 mg/dL
Hb [1]: 13 g/dL
Ht [1]: 40.5%
Lym [1]: 65.6%
MCH [1]: 20.8 pg
MCHC [1]: 32.2%
MCV [1]: 64.5 fL
Mono [1]: 3.8%
Neu [1]: 29%
PT [1]: 13.9 s
Plat [1]: 133.1 x10_4/uL
RBC [1]: 629 x10_4/ul
Ret [1]: 8.8%
WBC [1]: 87.9 x10_2/uL
KIDNEY_L [1]: 0.9 g
KIDNEY_R [1]: 0.9 g
KIDNEY_TOTAL [1]: 1.8 g
LIVER [1]: 9.3 g
ALP [1]: 2046.4 IU/L
ALT [1]: 44.4 IU/L
AST [1]: 70.8 IU/L
BUN [1]: 14.6 mg/dL
CRE [1]: 0.2 mg/dL
Ca [1]: 10.6 mg/dL
Cl [1]: 109.4 meq/L
DBIL [1]: 0.016 mg/dL
GLC [1]: 177 mg/dL
IP [1]: 7.4 mg/dL
K [1]: 4.4 meq/L
LDH [1]: 82.6 IU/L
Na [1]: 146 meq/L
PL [1]: 132.8 mg/dL
RALB [1]: 2.6 g/dL
TBIL [1]: 0.03 mg/dL
TC [1]: 68.4 mg/dL
TG [1]: 87.8 mg/dL
TP [1]: 5.5 g/dL
gamma-GTP [1]: 1.2 IU/L
TERMINAL_BW (300 mg/kg, 3 h, dose level Middle): 203.9 g
